The values below come from patent publication US20140328852A1, “IMMUNOGENIC GLUTEN PEPTIDES AND USES THEREOF” (UNIVERSIDAD DE VALLADOLID, priority 2011, published 2014).

Common to all, as to assay type: cell-based, human
Test [1] relates to dendritic cells derived from monocytes. Nature of the test: Cytokine mRNA expression in stimulated monocyte-derived dendritic cells. Conditions: dendritic cells from healthy donors, peptide 100 μg/ml, 48 hours.
A further test concerns autologous T lymphocytes. The test is described as follows: Proliferation of autologous T lymphocytes in co-culture with peptide-stimulated dendritic cells. To be noted: for proliferative response of autologous T lymphocytes (in words): celiac HLA-DQ2+ and non-celiac HLA-DQ2− samples; for proliferation rate: 4 days co-culture. As for the experimental part: FIG. 4. […] The mean and standard deviation of an experiment performed in triplicate are shown, and which is representative of three independent experiments with similar results. Each experiment was performed with an untreated celiac patient with genotype HLA-DQ2^+ and parallel to a healthy non-celiac individual HLA-DQ2^− as a control (C).
Monocyte-derived dendritic cells serve as antigen presenting cells. Stimulation experiments carried out in the present invention included a positive proliferation control (T lymphocytes cultured in the presence of monocyte-derived dendritic cells pre-activated in the presence of lipopolysaccharide, LPS) and two negative controls: CD14-fraction enriched with cultured T lymphocytes i) in basal medium and ii) in the presence of monocyte-derived dendritic cells unstimulated.
(§1) Mononuclear cells from ABO-compatible peripheral blood were isolated by centrifugation on a density gradient, and magnetic beads with anti-CD14 antibodies to separate CD14+ monocytes, that were induced for 6 days to differentiate into immature dendritic cells by IL-4 and GM-CSF (confirmed by flow cytometry) were isolated too. These cells were first stimulated for 48 hours with the 8-mer peptide (100 μg/mL, 10 μg/mL, 1 μg/mL) and other known gliadin peptides: 19-mer (100 μg/mL) and 33-mer (100 μg/mL) and then a co-culture with autologous T lymphocytes was performed (population CD14-obtained above), in which dendritic cells act as antigen presenting cells. As negative and positive controls of stimulation, a CD14-cell culture without dendritic cells (basal), and CD14-cells stimulated with lipopolysaccharide (LPS) were used respectively. After 4 days, the cell proliferation rate was calculated according to the absorbance ratio of stimulated/unstimulated dendritic cells in co-culture with autologous T lymphocytes.

The test system of test [2] is dendritic cells derived from monocytes. Nature of the test: Phenotypic maturation of monocyte-derived dendritic cells (flow cytometry of membrane markers). To be noted: dendritic cells from healthy controls, peptide 100 μg/mL, 48 hours. As for the experimental part: FIG. 2. […] Shadowed histograms represent the expression of the co-stimulator markers (CD40, CD80, CD86) or activators (CD83) in dendritic cells. Empty histograms represent isotype controls. This experiment is representative of three independent experiments; each of them is performed by triplicate.
as §1
On the technique in general: Flow cytometry measures light scatter and fluorescence of single cells or particles in a stream.

Setting [3] is: peptide 100 μg/ml, cells from celiac patients HLA-DQ2+, ratio stimulated/unstimulated dendritic cells.
Setting [4] is: peptide 100 μg/ml, cells from non-celiac individuals HLA-DQ2−, ratio stimulated/unstimulated dendritic cells.

As for “8-mer: eight amino acid gliadin peptide (SEQ ID NO: 2) generated in the gut of celiac patients by bacterial proteases (FPLQPQQP; listed as Triticum aestivum)”, in test [1], the “expression of IL-4 mRNA” value turned out to be 79 times. In addition, the “expression of IL-12p40 mRNA” value in test [1] was determined as 0.4 times. Also, the “proliferative response of autologous T lymphocytes (in words)” value in the test on autologous T lymphocytes is listed as “induced a proliferative response”. Further, the proliferation rate in the test on autologous T lymphocytes (peptide 1 μg/ml, cells from celiac patients HLA-DQ2+) stood at 1.27±0.005; with autologous T lymphocytes (peptide 1 μg/ml, cells from non-celiac individuals HLA-DQ2−) it was 1.04±0.039; in the test on autologous T lymphocytes (peptide 10 μg/ml, cells from celiac patients HLA-DQ2+), 1.69±0.005; in the test with autologous T lymphocytes (peptide 10 μg/ml, cells from non-celiac individuals HLA-DQ2−), 1.28±0.034; with autologous T lymphocytes (setting [3]) it was 2.09±0.029; in the test with autologous T lymphocytes (setting [4]), 1.51±0.108. Further, in test [2], the “membrane expression of CD40 and CD80 markers” value was “increased”. Moreover, in test [2], the “membrane expression of CD83 or CD86” value was “not”.
With “19-mer: known gliadin peptide 19-mer (SEQ ID NO: 4) (LGQQQPFPPQQPYPQPQPF; listed as Triticum monococcum)”, in test [1], the “expression of IL-4 mRNA” value is 7.7 times and the “expression of IL-12p40 mRNA” value is 0.4 times. For the same substance, in the test with autologous T lymphocytes, the “proliferative response of autologous T lymphocytes (in words)” value was “did not induce proliferation”. Moreover, the proliferation rate with autologous T lymphocytes (setting [3]) was 1.06±0.011. For the same substance, in the test on autologous T lymphocytes (setting [4]), the proliferation rate was found to be 1.03±0.039. Further, in test [2], the “membrane expression of CD40 and CD80 markers” value was “did not affect”; the “membrane expression of CD83 or CD86” value is listed as “did not affect”.
On to “33-mer: known immunodominant α-gliadin peptide 33-mer (SEQ ID NO: 5) (LQLQPFPQPELPYPQPELPYPQPELPYPQPQPF; Gluten peptide 33-mer)”, for which, in test [1], the “expression of IL-4 mRNA” value was 0.001 times and the “expression of IL-12p40 mRNA” value is reported as “inhibited”. In addition, the “proliferative response of autologous T lymphocytes (in words)” value in the test with autologous T lymphocytes was “did not induce proliferation”. For the same substance, in the test with autologous T lymphocytes (setting [3]), the proliferation rate was 1.04±0.005. In addition, the proliferation rate in the test with autologous T lymphocytes (setting [4]) is recorded as 1.04±0.018. In addition, in test [2], the “membrane expression of CD40 and CD80 markers” value was “did not affect”; the “membrane expression of CD83 or CD86” value is on record as “did not affect”.
